Measurements: patent US20230322805A1, “NOVEL PYRIMIDODIAZEPINE DERIVATIVES OR USES THEREOF” (SPARK BIOPHARMA, INC., priority 2020, published 2023)

Tests used:
[1] = test system: Htt-Q74; test: Level of aggregation-prone mutant protein after treatment; assay type: cell-based; settings: SB1617 treatment
[2] = test system: TBI mouse model; test: Controlled cortical impact TBI mouse model; assay type: in vivo
Procedure: CD-1 (ICR) male mice (2-3 months old, 25-35 g body weight; DBL, Korea) were used in the TBI study. […] All mice were fed water and food ad libitum. In order to avoid and minimize transport-related stress, experiments were initiated after a period of one week following transport to allow the animals to acclimatize to environmental conditions.
An experimental controlled cortical impact (CCI) model for TBI was performed as follows. Using an isoflurane vaporizer (VetEquip), the mouse was deeply anesthetized with isoflurane inhaled at 3% in a mixture of 70:30 nitrous oxide and oxygen, and placed in a stereotaxic apparatus. […] An approximately 4 mm incision was made in the right hemisphere using a hand-held drill (midline 2 mm, bregma 1 mm). A controlled cortical impact device (Leica Impact One, Leica Biosystems) was used to accelerate an impact device equipped with a 2 mm flat-tip at a speed of 5 m/sec to a depth of 1.4 mm. […] Traumatic brain injury animal models were randomly generated according to an online randomization tool (randomizer.org). Sham-operated groups performed only craniotomy.
Control mice were intraperitoneally administered with the same volume of vehicle.
Mice were deeply anesthetized by intraperitoneal administration of a mixture of urethane (1.5 g/kg) in saline (0.9% NaCl) at 0.01 mL/g per body weight. The effect of anesthesia was assessed using a toe pinch. Subsequently, saline was perfused into the heart of the mouse, and PBS was mixed with 4% paraformaldehyde and then perfused. Brains were fixed in 4% paraformaldehyde for 1 h and immersed in 30% sucrose for cryoprotection. Then, whole brains were frozen and […] sections were formed on a cryostat microtome (CM1850, Leica) with a thickness of 30 μm.
After washing in PBS, sections were incubated overnight with a mouse monoclonal anti-NeuN antibody (1:500 dilution, Millipore) in PBS containing 0.3% Triton X-100 at 4° C. to assess neuronal loss after TBI. After washing with PBS, sections were incubated in biotinylated anti-mouse IgG (1:250 dilution, Vector) at room temperature for 2 hours […] to detect NeuN antibody and biotinylated anti-rat IgG (1:250 dilution, Vector) to examine the degree of leakage of endogenous immunoglobulin G. Then, the sections were immersed in an avidin-biotin-peroxidase complex (Vector) for 2 hours at room temperature. Between incubations, sections were washed with PBS. […] Immunoreactivity was observed under an Olympus IX70 inverted microscope.
Immunofluorescence labeling was performed according to a conventionally known general immunostaining procedure. […] After washing with PBS, the sections were incubated with each specific type of polyclonal or monoclonal primary antibody with PBS containing 0.3% Triton X-100 overnight at 4° C.
The primary antibodies used in this test are the same as follows: • mouse monoclonal anti-4-hydroxynonenal (4-HNE; diluted 1:500; Alpha Diagnostic International), • mouse monoclonal anti-Tau (Tau5; diluted 1:500; Abcam), • mouse monoclonal anti-phospho Tau (Ser202, Thr205; AT8; diluted 1:200; Invitrogen), • mouse monoclonal anti-PDI (diluted 1:100; Abcam), • rabbit polyclonal anti-ERp57 (diluted 1:100; Abcam), and • goat polyclonal anti-Iba-1 antibody (diluted 1:500; Abcam).
To count NeuN-positive cells, every sixth section was collected posterior to bregma from 1.2 to 2.1 mm at 180 μm intervals. Five coronal sections from each mouse were analyzed using a microscope with a 20×objective. These sections were then coded and provided to a blinded experimenter to count total NeuN-positive cells in hippocampal CA1 and cortex from hippocampal hemispheres. Data were expressed as the average number of NeuN-positive cells per area. To quantify the PDI-, ERp57-, Tau5-, AT8-, and 4HNE- immunofluorescence intensities, five coronal sections were evaluated by a blinded experimenter using ImageJ (National Institute of Health).

[3] = after TBI induction, versus vehicle
[4] = ipsilateral perilesional cortex, 12 and 24 hours after TBI induction

## CN(Cc1ccc(Cl)cc1)c1ncnc2c1[C@@H]1OC[C@H](CN2)N1S(=O)(=O)c1ccc([N+](=O)[O-])cc1 [Compound 117]
[1]
  mutation level of Htt-Q74: downregulated
[2]; 1, 4, 24, 48, 72 hours and 7 days after TBI
  neurologic severity score (NSS): maintained nerve protection activity
[2]; [3]
  pole climbing test, time to descend the pole: significantly reduced
  pole climbing test, time to turn the head downward: significantly reduced
[2]; ipsilateral hemisphere, after TBI
  level of microglial activation: the activity of microglial cells was improved
[2]; ipsilateral hippocampal CA1 and cortex, 24 hours after TBI, 5 mg/kg, 2 times a day
  total tau and p-tau levels (Tau5, AT8 immunofluorescence): these symptoms were improved
[2]; ipsilateral hippocampal CA1 and cortex, 72 hours after TBI
  Iba-1 levels (neuroinflammation): could be improved
[2]; ipsilateral hippocampal CA1 and cortex, 5 mg/kg, 2 times a day
  ER stress and oxidative stress (PDI, ERp57 immunofluorescence): these symptoms were confirmed
[2]; [4]
  conversion rate from LC3-1 to LC3-II (Western blotting): the conversion rate from LC3-1 to LC3-II was improved
  p62 protein level (Western blotting): an increase in p62 protein level
